Data as given in patent US20220370545A1, “INTEGRIN RECEPTOR ALPHA V BETA 3 AND ITS LIGAND INVOLVED IN CHRONIC ITCH” (North Carolina State University, priority 2019, published 2022).
Each block holds one molecule with its values, some of them ahead of it. Ends that are not written are not given here.

Tests used:
[1] = molecular target: T1, TRPV1 receptor (Mus musculus, UniProt Q704Y3); experiment: Capsaicin-induced calcium response in DRG neurons (specificity control); assay type: cell-based; details: capsaicin 1 μM
T1 construct: endogenous in cells; host or cells: primary mouse dorsal root ganglion neurons
Protocol: (§1) Before imaging, cells were incubated in 350 μL of complete media containing 1 μM Fura-2 AM (Enzo Life Sciences, Farmingdale, New York, United States of America) for 30 min at 37° C. with 5% CO2. During imaging, the cells were perfused with a buffer containing the following: 135 mM sodium chloride, 3.2 mM potassium chloride, 2.5 mM magnesium chloride, 2.8 mM calcium chloride, 667 μM monobasic sodium phosphate, 14.2 mM sodium bicarbonate, and 10.9 mM D-glucose (all from VWR International, Radnor, Pennsylvania, United States of America) with a pH between 7.00 and 7.40. The buffer and the holding plate were kept at 37° C. while imaging. Imaging data was collected on a TE200 inverted microscope using NIS Elements software (Nikon, Melville, New York, United States of America). Cells were exposed to 340 nm and 380 nm wavelengths for 100 ms and the A340/A380 ratio was calculated. Traces were analyzed using Excel and responses greater than 10% of the baseline were counted. Each data point in the scatter plots represented one coverslip.
(§2) Calcium Imaging: Calcium imaging will be performed on the DRG neurons as previously described (Pitake et al., 2018). Briefly, DRG neurons will be incubated for longer than 30 min in DMEM containing 1 μM of a fluorescent indicator Fura-2 AM (Enzo Life Sciences, Inc., Farmingdale, N.Y., United States of America). The neurons will be perfused in a standard bath solution containing 140 mM NaCl, 5 mM KCl, 2 mM MgCl2, 2 mM CaCl2, 10 mM Hepes and 10 mM D-glucose at pH 7.4 adjusted with NaOH. A calcium-free bath solution will be prepared by omitting 2 mM CaCl2 from the standard bath solution […] adding 5 mM EGTA. Fura-2 fluorescence excited at 340 and 380 nm and emission will be monitored at 510 nm with a digital CCD camera (Andor Clara DR-4152, Andor Technology Ltd, Belfast, United Kingdom). Data will be obtained by every 100 ms using an imaging software (NIS-Elements AR 4.13.04, Nikon Corporation, Tokyo, Japan) and analyzed by Microsoft Excel (Microsoft Corporation, Redmond, Wash., United States of America). Values of calcium responses will be normalized by dividing measured values (F) with average values of initial 5 frames (F0) of each cell and described as F/F0. In this study, changes in each response to an application with F/F0>0.1 will be regarded as positive. Cells not responding to 100 mM KCl, which is applied at the end of each experiment, will be regarded as non-neuronal cells and excluded from analysis.
Additional inhibitors were studied using the calcium imaging method described in Example 3. Briefly, the Fura2-AM calcium imaging method was performed on live dorsal root ganglia (DRG) neurons (ex vivo). The DRG neurons are pre-incubated with the inhibitors P11 (Catalog #4744, Tocris Bioscience, Bristol, United Kingdom) and LM609 (Catalog #MAB1876, Millipore Sigma, Burlington, Mass., United States of America) or vehicle for 10 minutes and further stimulated with periostin or capsaicin in the presence of inhibitors. For Echistatin (Catalog #3202/100U, R&D Biosystems, Minneapolis, Minn., United States of America), MK-0429, and SB273005 (Catalog #S75-40, Selleck Chemicals Llc, Houston, Tex., United States of America), the DRG neurons were perfused with a normal Locke buffer vehicle or modified Locke buffer as described below. The values were normalized with KCl ([…]) to identify neuronal responses in all the calcium response data below.

[2] = tested on: Integrin αvβ3 on DRG Sensory Neurons; experiment: Fura-2 calcium imaging of periostin-induced calcium response in cultured DRG sensory neurons; assay type: cell-based, mouse
Protocol: DRGs were isolated from mice and dissociated in 1 mL of media containing 2.5 U/mL of dispase (Fisher Scientific, Hampton, New Hampshire, United States of America) and 2.5 mg/mL of collagenase (Fisher Scientific, Hampton, New Hampshire, United States of America). After dissociation, the cells were washed with complete media (DMEM (HiMedia Laboratories, Mumbai, India) with 10% FBS (Atlanta Biologicals, Flowery Branch, Georgia, United States of America) and 1% PenStrep (VWR International, Radnor, Pa., United States of America)) and pelleted at 1000 rpm for 15 minutes. Approximately 30 μL of the cell suspension was plated on 18 mm round glass slides with a coating of laminin (Sigma Aldrich, St. Louis, Miss., United States of America) and poly-L-lysine (Sigma Aldrich, St. Louis, Miss., United States of America) and incubated for 1.5 hours. Afterwards, 1 mL of complete media was added, and the cells were incubated overnight. All incubation steps were done at 37° C. with 5% CO2.
as §1, §2
Periostin (10 ug/ml) will be used to evoke calcium influx. This response has been optimized. The peptide inhibitors will be tested on DRG neurons to measure calcium influx in response to periostin. Data on calcium imaging will be presented by presenting each mouse±SEM. The IC50 value of the inhibitor will also be determined
Additional inhibitors were studied using the calcium imaging method described in Example 3. Briefly, the Fura2-AM calcium imaging method was performed on live dorsal root ganglia (DRG) neurons (ex vivo). […]

[3] = tested on: murine keratinocyte cell line (Balb/MK2); experiment: TSLP-induced periostin production in Balb/MK2 keratinocytes (ELISA); assay type: cell-based, mouse; details: for TSLP-induced periostin release: pre-exposed 4 hrs to 10 μmol/l inhibitor, then TSLP 10 ng/ml for 24 h
Protocol: The murine keratinocyte cell line (Balb/MK2) was used in this study to determine the periostin production induced by TSLP. Cells were cultured in EMEM medium according to the previously described method (Fukuyama et al., 2018). Confluent cells were exposed to TSLP at 1 or 10 ng/ml in FBS-free medium for 24 hrs. Inhibitory effect of the JAK2 inhibitor, SD 1008 and the STAT3 inhibitor, niclosamide, on TSLP-induced periostin production was also quantified using the murine Balb/MK2 keratinocyte cell line. Confluent cells were pre-exposed for 4 hrs to SD 1008 (10 μmol/l) or niclosamide (10 μmol/l), before being exposed to the TSLP at 10 ng/ml for a further 24 h. After TSLP exposure, periostin levels in cell supernatant were determined by ELISA according to the manufacturer's instructions.

[4] = tested on: mouse cornea; experiment: Eye wipes assay (corneal application); assay type: in vivo; details: wild-type mice, wiping measured for 1 minute
Protocol: All behavioral experiments were conducted during the light cycle at ambient temperature (23° C.). Behavioral assessment of scratching behavior was conducted as described previously (Mishra et al., 2011). Briefly, mice were injected intradermal into the nape of the neck with periostin (R&D), histamine, and chloroquine (all Millipore-Sigma) as previously described (Shimada and LaMotte, 2008). Compounds were diluted in PBS and the same was used as a vehicle. […] Additionally, cilengitide and periostin were combined together (mix) and injected i.d. into the dorsal neck of mouse. Scratching behavior was recorded for 30 minutes and data was presented in bouts per 30 minutes for mice. […] For eye wipes assay, periostin and capsaicin were dropped on mouse cornea and counted wipes for 1-minute. […] For dog's study, periostin (25 μg/25 μl) was injected in the dorsal neck (s.c.) and behavior was recorded and quantified for 30 minutes as “duration of pruritus manifestation” (DPM), as described earlier (Paps et al., 2016). […] When different raters separately scored a single tape, the ratings indicated high interrater reliability (coefficient of correlation, r>0.95). This method of itch readout in NHP has been used and accepted (Ko and Naughton, 2000). The behavior was recorded for 30 minutes duration and number of scratches quantified. […]

[5] = tested on: NC/Nga mice sensitized with Dermatophagoides farinae HDM; experiment: House dust mite (HDM) allergic itch model in NC/Nga mice; assay type: in vivo, mouse
Protocol: C57BL6 mice (Jackson Labs, Ellsworth, Maine, United States of America) were applied daily with MC903 (4 nmol) and vehicle (97% ethanol) after brief anesthesia. Skin thickness was measured using cutimeter as described (Fukuyama et al., 2015). Scratching behavior was video-monitored for 30 min on Day 1 and Day 7. On Day 7 skin was collected from vehicle and MC903 treated mice for the Western Blot (WB) as described below. NC/Nga mice (Charles River, Yokohama, Japan) were sensitized and challenged with house dust mite (HDM) allergen (Dermatophagoides farina, Greer, Lenoir, N.C., United States of Amercia) as described previously (Fukuyama et al., 2018). In short, for sensitization, 30 μl of HDM in mineral oil (10 mg/ml) was applied topically to the clipped back twice weekly supported by tape stripping until visible lesions had developed. After development of visible lesions mice were treated daily either with vehicle cream or betamethasone dipropionate (0.1% in lipoderm, n=8). […] Scratching behavior was video monitored for 60 min period immediately after HDM on day 42. For periostin measurement, mice were sacrificed for determination of periostin in skin on day 43. A portion of back skin tissue were snap-frozen in liquid nitrogen. Briefly, samples were homogenized under liquid nitrogen, and the homogenates were taken in 200 μL RPMI 1640 medium containing 1 mmol/L Pefabloc. The amount of periostin was determined using ELISA according to the manufacturer's instruction.

[6] = molecular target: integrin αvβ3 on mouse dorsal root ganglia (DRG) sensory neurons (mouse) (UniProt P43406); experiment: cell-based or functional assay
Sequence of integrin αvβ3 on mouse dorsal root ganglia (DRG) sensory neurons (mouse) (P43406 31-1044, chain 1 of 2): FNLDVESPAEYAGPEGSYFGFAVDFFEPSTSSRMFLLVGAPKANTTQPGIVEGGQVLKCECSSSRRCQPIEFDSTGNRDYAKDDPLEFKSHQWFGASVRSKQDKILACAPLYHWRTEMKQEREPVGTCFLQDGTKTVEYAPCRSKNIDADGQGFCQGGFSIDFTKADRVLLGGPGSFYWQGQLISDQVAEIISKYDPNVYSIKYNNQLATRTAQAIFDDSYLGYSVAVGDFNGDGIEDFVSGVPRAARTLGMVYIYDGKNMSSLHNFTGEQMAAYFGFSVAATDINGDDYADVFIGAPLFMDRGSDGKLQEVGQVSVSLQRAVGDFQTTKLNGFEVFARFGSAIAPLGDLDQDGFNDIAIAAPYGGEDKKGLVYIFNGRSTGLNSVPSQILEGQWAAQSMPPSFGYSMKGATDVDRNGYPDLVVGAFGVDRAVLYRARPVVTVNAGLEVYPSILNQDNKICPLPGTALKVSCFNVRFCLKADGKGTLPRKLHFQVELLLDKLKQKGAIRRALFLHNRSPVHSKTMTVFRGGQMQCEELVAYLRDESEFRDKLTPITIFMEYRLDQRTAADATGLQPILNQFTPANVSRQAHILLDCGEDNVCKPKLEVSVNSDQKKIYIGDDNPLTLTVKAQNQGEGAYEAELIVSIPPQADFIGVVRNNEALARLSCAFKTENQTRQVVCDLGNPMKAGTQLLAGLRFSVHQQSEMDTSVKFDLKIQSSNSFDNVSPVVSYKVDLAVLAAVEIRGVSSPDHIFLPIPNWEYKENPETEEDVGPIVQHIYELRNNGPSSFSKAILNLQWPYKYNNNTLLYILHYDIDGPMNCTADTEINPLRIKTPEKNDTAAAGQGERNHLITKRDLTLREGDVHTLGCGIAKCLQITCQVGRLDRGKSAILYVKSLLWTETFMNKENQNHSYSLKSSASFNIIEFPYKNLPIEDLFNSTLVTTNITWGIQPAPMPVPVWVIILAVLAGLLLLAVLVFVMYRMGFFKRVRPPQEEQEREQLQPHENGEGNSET
Sequence of integrin αvβ3 on mouse dorsal root ganglia (DRG) sensory neurons (mouse) (O54890 26-787, chain 2 of 2, further chain): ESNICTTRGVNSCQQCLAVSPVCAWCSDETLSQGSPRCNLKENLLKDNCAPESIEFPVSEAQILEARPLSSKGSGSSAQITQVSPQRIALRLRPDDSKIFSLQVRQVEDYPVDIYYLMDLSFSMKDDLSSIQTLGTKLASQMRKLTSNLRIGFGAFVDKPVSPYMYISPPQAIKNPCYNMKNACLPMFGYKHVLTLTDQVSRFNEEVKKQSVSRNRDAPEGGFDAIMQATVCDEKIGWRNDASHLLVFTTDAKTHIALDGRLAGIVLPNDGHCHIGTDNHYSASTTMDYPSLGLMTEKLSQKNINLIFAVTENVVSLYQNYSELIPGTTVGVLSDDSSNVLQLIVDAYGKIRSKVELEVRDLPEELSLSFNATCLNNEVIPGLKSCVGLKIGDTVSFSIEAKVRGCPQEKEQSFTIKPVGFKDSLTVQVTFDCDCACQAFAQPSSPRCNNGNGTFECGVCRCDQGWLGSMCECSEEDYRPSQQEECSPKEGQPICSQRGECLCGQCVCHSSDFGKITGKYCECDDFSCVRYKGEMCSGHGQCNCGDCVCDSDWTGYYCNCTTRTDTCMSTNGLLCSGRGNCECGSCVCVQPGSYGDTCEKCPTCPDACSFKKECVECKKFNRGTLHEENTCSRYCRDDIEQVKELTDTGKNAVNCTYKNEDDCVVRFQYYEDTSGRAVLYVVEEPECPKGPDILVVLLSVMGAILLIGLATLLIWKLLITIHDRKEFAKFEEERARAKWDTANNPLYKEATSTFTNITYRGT

T1 sequence (Q704Y3 whole entry): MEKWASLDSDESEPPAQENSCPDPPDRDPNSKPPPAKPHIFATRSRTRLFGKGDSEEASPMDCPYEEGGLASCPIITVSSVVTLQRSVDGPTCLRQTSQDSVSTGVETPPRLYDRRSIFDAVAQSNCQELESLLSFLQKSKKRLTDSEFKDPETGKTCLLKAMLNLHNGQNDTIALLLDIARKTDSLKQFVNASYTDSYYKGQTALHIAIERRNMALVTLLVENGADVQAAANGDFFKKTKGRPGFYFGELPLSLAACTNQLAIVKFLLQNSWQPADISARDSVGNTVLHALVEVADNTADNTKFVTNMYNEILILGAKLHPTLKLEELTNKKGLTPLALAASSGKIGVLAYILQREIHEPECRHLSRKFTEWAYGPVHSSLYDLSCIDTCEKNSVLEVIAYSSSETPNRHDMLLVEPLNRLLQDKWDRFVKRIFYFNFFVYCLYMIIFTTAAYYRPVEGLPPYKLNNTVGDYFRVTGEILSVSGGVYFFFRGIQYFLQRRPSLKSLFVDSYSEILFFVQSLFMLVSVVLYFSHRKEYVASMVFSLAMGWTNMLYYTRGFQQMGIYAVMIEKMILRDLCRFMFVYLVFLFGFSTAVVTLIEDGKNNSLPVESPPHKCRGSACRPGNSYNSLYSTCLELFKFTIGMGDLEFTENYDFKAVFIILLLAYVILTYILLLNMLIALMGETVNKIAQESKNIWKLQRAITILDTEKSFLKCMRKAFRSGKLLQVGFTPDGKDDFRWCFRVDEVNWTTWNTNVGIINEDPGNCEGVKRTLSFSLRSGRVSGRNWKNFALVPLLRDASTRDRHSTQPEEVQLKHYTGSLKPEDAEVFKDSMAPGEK

capsaicin response ([1]; SB273005 11 nM or 20 nM): No changes
Molecule: CNc1cccc(CCOc2ccc3c(c2)CN(CC(F)(F)F)C(=O)[C@H](CC(=O)O)C3)n1 [SB273005, (S)-2-(8-(2-(6-(methylamino)pyridin-2-yl)ethoxy)-3-oxo-2-(2,2,2-trifluoroethyl)-2,3,4,5-tetrahydro-1H-benzo-[c]azepin-4-yl)acetic acid]
reduction of periostin-induced calcium response ([2]; SB273005 11 nM, trend, not statistically significant): about 40%
periostin-induced calcium response ([2]; SB273005 higher concentration (20 nM)): significant reduction

Molecule: COc1ccc2c(c1)CC[C@@H]1[C@@H]2CC[C@]2(C)[C@@H](NCCCCCCN3C(=O)C=CC3=O)CC[C@@H]12 [U73122]
periostin-induced calcium response ([2]; phospholipase C inhibitor U73122 1 μM): not affected

Molecule: Echistatin
capsaicin response ([1]; in presence of Echistatin): remains unaffected
reduction in periostin-induced calcium influx ([2]; Echistatin 4 nM): around 80%

Molecule: COC(=O)[C@@H]1[C@H](C(=O)OC)[C@H]2C=CC(=O)[C@@H]1N2Cc1ccccc1 [SD 1008]
TSLP-induced periostin release [3]: blocked

Molecule: COc1cc(CNC(=O)CCCC/C=C/C(C)C)ccc1O [capsaicin]
eye-wiping response to ocular application [4]: robust eye-wipe behavior

Molecule: O=C(Nc1ccc([N+](=O)[O-])cc1Cl)c1cc(Cl)ccc1O [niclosamide]
TSLP-induced periostin release [3]: blocked

Molecule: O=C1OC2(c3ccccc31)c1ccc(O)c(O)c1Oc1c2ccc(O)c1O [gallein]
periostin-induced calcium response ([2]; Gβγ blocker gallein 100 μM): not affected

capsaicin response ([1]; MK-0429 80 nM or 160 nM): no changes
Molecule: COc1ccc([C@H](CC(=O)O)N2CCN(CCCc3ccc4c(n3)NCCC4)C2=O)cn1 [MK-0429, (S)-3-(6-methoxypyridin-3-yl)-3-(2-oxo-3-(3-(5,6,7,8-tetrahydro-1,8-naphthyridin-2-yl)propyl)-imidazol-idin-1-yl)propanoic acid]
periostin response (calcium influx) ([2]; higher concentration of MK-0429 (160 nM)): significant reduction

Molecule: CCC(=O)OCC(=O)[C@@]1(OC(=O)CC)[C@@H](C)C[C@H]2[C@@H]3CCC4=CC(=O)C=C[C@]4(C)[C@@]3(F)[C@@H](O)C[C@@]21C [betamethasone dipropionate]
HDM-induced scratching ([5]; betamethasone dipropionate 0.1% in lipoderm topically, day 42): reduced
periostin skin levels ([5]; betamethasone dipropionate 0.1% in lipoderm topically, skin ELISA day 43): reduced significantly
body weight ([5]; daily betamethasone dipropionate 0.1%, application reduced to every other day on day 26): significant weight loss

inward current in SST-positive DRG neurons in response to periostin (10 µg/ml), whole-cell patch clamp [6]: 58.4 pA
Molecule: Recombinant Mouse Periostin (from UniProt Q62009 24-811) (ligand)

Molecule: His-Ser-Asp-Val-His-Lys-NH2 (HSDVHK-NH2) [P11]
capsaicin response ([1]; P11 pre-treatment): no change
reduction in periostin-induced calcium influx ([2]; P11 50 μg/ml, 10 minutes pre-incubation): about 78%

B1: TSLP: Th2 cytokine thymic stromal lymphopoietin, recombinant mouse (protein, UniProt Q9JIE6 20-140, looked up)
Thymic stromal lymphopoietin: YNFSNCNFTSITKIYCNIIFHDLTGDLKGAKFEQIEDCESKPACLLKIEYYTLNPIPGCPSLPDKTFARRTREALNDHCPGYPETERNDGTQEMAQEVQNICLNQTSQILRLWYSFMQSPE
release of periostin from keratinocytes ([3]; TSLP 1 and 10 ng/ml, 24 hrs): induced the release of periostin
